Legend:
Cytochrome P450 2C9 [1] = target: T1, Cytochrome P450 2C9 (Homo sapiens, UniProt P11712); assay: Inhibition of reconstituted CYP2C9; format: ADME
Cytochrome P450 2C9 [2] = target: T1, Cytochrome P450 2C9; assay: Binding affinity to CYP2C9 assessed as spectral dissociation constant
Cytochrome P450 2C9 [3] = target: T1, Cytochrome P450 2C9; assay: Inhibition of purified CYP2C9

T1 sequence (P11712 whole entry): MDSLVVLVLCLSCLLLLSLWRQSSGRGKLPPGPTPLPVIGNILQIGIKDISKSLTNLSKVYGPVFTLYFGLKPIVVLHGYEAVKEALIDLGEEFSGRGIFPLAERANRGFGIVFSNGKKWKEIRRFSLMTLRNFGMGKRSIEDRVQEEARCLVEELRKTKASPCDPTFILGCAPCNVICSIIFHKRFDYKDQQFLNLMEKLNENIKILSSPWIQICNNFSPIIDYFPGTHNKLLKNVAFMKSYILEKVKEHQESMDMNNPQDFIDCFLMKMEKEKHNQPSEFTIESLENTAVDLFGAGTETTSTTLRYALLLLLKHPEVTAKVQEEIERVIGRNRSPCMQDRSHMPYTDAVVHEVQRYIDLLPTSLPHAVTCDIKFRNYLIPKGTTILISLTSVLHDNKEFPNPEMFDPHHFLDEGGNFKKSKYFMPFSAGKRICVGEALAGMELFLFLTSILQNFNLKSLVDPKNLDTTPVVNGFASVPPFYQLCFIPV

Ki (Cytochrome P450 2C9 [1]) [nM] | SMILES | Kd (Cytochrome P450 2C9 [2]) [nM] | Ki (Cytochrome P450 2C9 [3]) [nM]
33 | O=C(Nc1ccc2ccccc2c1)c1cc(-c2ccncc2)nc2ccccc12 | – | –
1250 | O=C(Nc1cccc2ccccc12)c1cc(-c2cccnc2)nc2ccccc12 | – | –
23600 | O=C(c1cc(-c2ccccn2)nc2ccccc12)N1CCCCC1 | – | –
76200 | O=C(c1cc(-c2ccccn2)nc2ccccc12)N1CCC(N2CCCC2)CC1 | – | –
10700 | O=C(Nc1ccc2ccccc2c1)c1cc(-c2ccccn2)nc2ccccc12 | – | –
1150 | O=C(Nc1ccc2ccccc2c1)c1cc(-c2cccnc2)nc2ccccc12 | – | –
3670 | O=C(c1cc(-c2ccncc2)nc2ccccc12)N1CCC(N2CCCC2)CC1 | – | –
24100 | O=C(c1cc(-c2cccnc2)nc2ccccc12)N1CCC(N2CCCC2)CC1 | – | –
8550 | Cc1cc(C)c2nc(-c3cccnc3)cc(C(=O)Nc3ccc4ccccc4c3)c2c1 | – | –
4060 | O=C(Nc1ccccc1)c1cc(-c2cccnc2)nc2ccccc12 | – | –
9940 | O=C(c1cc(-c2ccncc2)nc2ccccc12)N1CCCCC1 | – | –
3470 | O=C(Nc1ccccc1)c1cc(-c2ccccn2)nc2ccccc12 | – | –
9740 | O=C(c1cc(-c2cccnc2)nc2ccccc12)N1CCCCC1 | – | –
100 | O=C(Nc1ccccc1)c1cc(-c2ccncc2)nc2ccccc12 | 325 | –
> 43500 | O=C(NCc1cccc2ccccc12)c1cc(-c2ccccn2)nc2ccccc12 | – | –
> 20600 | Cc1cc(C)c2nc(-c3ccccn3)cc(C(=O)Nc3ccc4ccccc4c3)c2c1 | – | –

SMILES | Ki (Cytochrome P450 2C9 [1]) [nM] | Kd (Cytochrome P450 2C9 [2]) [nM] | Ki (Cytochrome P450 2C9 [3]) [nM]
O=C(NCc1cccc2ccccc12)c1cc(-c2ccncc2)nc2ccccc12 | 125 | 1280 | 113
O=C(Nc1ccc2ccccc2c1)c1cc(-c2cccnc2)nc2ccc(Br)cc12 | > 37900 | – | –
O=C(Nc1cccc2ccccc12)c1cc(-c2ccccn2)nc2ccccc12 | 1320 | – | –
O=C(Nc1ccc2ccccc2c1)c1cc(-c2cccnc2)nc2ccc(Cl)cc12 | 1890 | – | –
O=C(Nc1ccc2ccccc2c1)c1cc(-c2ccncc2)nc2ccc(Br)cc12 | 9 | – | –
Cc1cc(C)c2nc(-c3ccncc3)cc(C(=O)Nc3ccc4ccccc4c3)c2c1 | 11 | – | –
O=C(NCc1cccc2ccccc12)c1cc(-c2cccnc2)nc2ccccc12 | 152 | – | –
O=C(Nc1ccc2ccccc2c1)c1cc(-c2ccncc2)nc2ccc(Cl)cc12 | 12 | – | –

Reference: ChEMBL document CHEMBL1151734, “Cytochrome P450 2C9 type II binding studies on quinoline-4-carboxamide analogues” (J Med Chem, 2008)
